In patent publication US8835446B2, “Quinazoline derivatives and pharmaceutical compositions thereof” (Nippon Shinyaku Co., Ltd., priority 2005, dated 2014):

Key:
Rabbits = settings: female, Kbs: JW, rabbit, in vivo, 24 h
From the text: Then, erythema and edema formation at the application site was observed. […] The mean value of the sum of erythema and edema scores was used as a simple primary skin irritation index. […]

Guinea Pigs = assay: Test for skin sensitization in guinea pigs (adjuvant and patch test method)
Protocol: The dorsal area of male Hartley guinea pigs (n=5) at the age of 7 weeks was shaved with an electric shaver, and on the following day, primary sensitization was initiated. In the primary sensitization, emulsified complete Freund's adjuvant was intradermally administered at a dose of 0.1 ml only at the initial time, and an adhesive plaster for a patch test spread with 0.1 g of an ointment containing a test compound at 1%, was applied in an occluded state to the site where the adjuvant was intradermally administered. As a base of the ointment, petrolatum containing sorbitan sesquioleate (a surfactant) at 1% was used. At 24 hours after the adhesive plaster for a patch test was applied, the adhesive plaster was removed, and the application site was cleaned by wiping. The procedure of this primary sensitization was performed once daily and continued for a total of 3 days. On 7 days after the initial application of the primary sensitization, secondary sensitization was performed. The site subjected to the primary sensitization was shaved, and an ointment containing sodium lauryl sulfate at 10% was applied thereto in an open state. After 24 hours, the application site was cleaned by wiping, and a lint cloth spread with 0.2 g of the ointment containing a test compound at 1% was applied, thereto in an occluded state. At 48 hours after the lint cloth was applied, the cloth was removed, and the application site was cleaned by wiping. Challenge was performed on 13 days after initiation of the secondary sensitization. The dorsal area and flank area were shaved, and 0.01 g of the ointment containing a test compound at 1% was applied to the challenge site and left for about 24 hours. At about 24 hours and 48 hours after the challenge, observation of the skin surface was performed, and the presence or absence of sensitizing was determined. The determination was carried out by scoring according to the evaluation criteria (see Table 1) of the Draize method (1959).
In this connection, as a positive control, 1-chloro-2,4-dinitrobenzene (DNCB) (sensitization: 1%, challenge: 0.1%) was used. As the test compound, the compounds of Example 58 and Example 248 were used. As a comparative control, 4-[((1S,2R)-2-{[amino(imino)methyl]amino}cyclohexyl)amino]-N-isobutyl-6-methylquinazoline-2-carboxamide dihydrochloride described in Example 383 in Patent document 1 (sensitization: 0.1%, induction: 1%) was used.

Mice [1] = assay: Effect on scratching behavior induced by serotonin application in mice; assay type: in vivo, mouse; settings: counted for 15 minutes
Protocol: To the cervical and dorsal area of male ICR mice (n=3 to 6) at the age of 4 to 6 weeks, 100 μl of a solution obtained by dissolving serotonin hydrochloride in ethanol at 0.1% (hereinafter referred to as serotonin) was applied, and the number of scratching behavior at the application site with the hind legs occurring immediately after the application was counted for 15 minutes after administration with a counter. Administration of a test compound was carried out by skin application, intravenous administration or oral administration. In the case of skin application, the test compound that was dissolved in ethanol was applied in an amount of 100 μl concurrently with serotonin. In the case of intravenous administration, the test compound that was dissolved in physiological saline was administered at a dose of 10 ml/kg at 5 minutes prior to the serotonin application. In the case of oral administration, the test compound that was dissolved in distilled water was administered at a dose of 10 ml/kg at 20 minutes prior to the serotonin application. The control group of each administration route was given the respective solvent, and the values of scratching behavior were compared between the control group and the test compound group.
The results obtained by skin application of the test compound are shown in Table 3; the results obtained by intravenous administration of the test compound are shown in Table 4; and the results obtained by oral administration of the test compound are shown in Table 5.

Mice [2] = assay: Acute toxicity test in mice; assay type: in vivo, mouse; settings: intravenous, 10 mg/kg; observed for 2 hours
From the text: Male ICR mice at the age of 4 to 6 weeks were used.

[3] = positive control, sensitization: 1%, challenge: 0.1%, n=5
[4] = skin application, concentration 0.1% in ethanol, concurrently with serotonin
[5] = oral administration, dose 30 mg/kg, 20 minutes prior to serotonin

Structure (SMILES) | Simple primary skin irritation index (Rabbits) | edema (Draize score, cases) (Guinea Pigs; guinea pig, in vivo) | erythema (Draize score, cases) (Guinea Pigs; male, Hartley, guinea pig, in vivo) | edema (Draize score, cases) (Guinea Pigs; [3]) | erythema (Draize score, cases) (Guinea Pigs; [3]) | Average number of scratching behavior (Mice [1]; [4]) | Change in behavior (Mice [2]) | Average number of scratching behavior (Mice [1]; [5])
Cc1ccc2nc(C(=O)NCC(C)C)nc(N[C@H]3CCCC[C@H]3NC(=N)N)c2c1.Cl.Cl [Comparative control A, 4-[((1S,2R)-2-{[amino(imino)methyl]amino}cyclohexyl)amino]-N-isobutyl-6-methylquinazoline-2-carboxamide dihydrochloride] | 1.8 | edema was not observed in all the cases | well-defined erythema (score 2) was observed in 2/5 cases | – | – | – | – | –
O=[N+]([O-])c1ccc(Cl)c([N+](=O)[O-])c1 [DNCB, 1-chloro-2,4-dinitrobenzene] | – | – | – | score 1 in 3/5 cases, and score 0 in 2/5 cases | score 3 in 3/5 cases, score 2 in 1/5 cases, and score 1 in 1/5 cases | – | – | –
CON=C(N)N[C@@H]1CCCC[C@@H]1Nc1nc(C(=O)NCC(C)C)nc2ccc(C)cc12.Cl.Cl [Example 211, 4-[((1S,2R)-2-{[amino(methoxyimino)methyl]amino}cyclohexyl)amino]-N-isobutyl-6-methylquinazolin-2-carboxamide dihydrochloride] | 1.5 | – | – | – | – | 73.0 | No obvious change | –
Cc1ccc2nc(C(=O)NCC(C)C)nc(N[C@H]3CCCC[C@H]3NC(N)=NO)c2c1.Cl.Cl [Example 212, 4-[((1S,2R)-2-{[amino(hydroxyimino)methyl]amino}cyclohexyl)amino]-N-isobutyl-6-methylquinazolin-2-carboxamide dihydrochloride] | 0.8 | – | – | – | – | 49.8 | No obvious change | –
COCCCNC(=O)c1nc(N[C@H]2CCCC[C@H]2NC(N)=NOC)c2cc(C)ccc2n1.Cl.Cl [Example 239, 4-[((1S,2R)-2-{[amino(methoxyimino)methyl]amino}cyclohexyl)amino]-N-(3-methoxypropyl)-6-methylquinazolin-2-carboxamide dihydrochloride] | 1.0 | – | – | – | – | 55.8 | No obvious change | 88.6
COCCCNC(=O)c1nc(N[C@H]2CCCC[C@H]2NC(N)=NO)c2cc(C)ccc2n1.Cl.Cl [Example 240, 4-[((1S,2R)-2-{[amino(hydroxyimino)methyl]amino}cyclohexyl)amino]-N-(3-methoxypropyl)-6-methylquinazolin-2-carboxamide dihydrochloride] | 1.0 | – | – | – | – | 65.3 | No obvious change | 95.2
